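How tested: cells in 96-well plates exposed to compound for 48 hours at five concentrations. Here, GI50 denotes the concentration required for 50% inhibition of growth.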 Active and inactive are the calls of the source. Rule as the data show it: active = GI50 up to about 1.1 µM and inactive = higher.
Columns and labels:
Test in all cases: growth of human tumour cells (NCI), 48 h
U-251 = test system: U-251
EKVX = test system: EKVX
HOP-62 = test system: HOP-62
A549 = test system: A549
SNB-19 = test system: SNB-19
LXFL 529 = test system: LXFL 529
OVCAR-8 = test system: OVCAR-8
RPMI-8226 = test system: RPMI-8226
SF-295 = test system: SF-295
M14 = test system: M14
HOP-18 = test system: HOP-18
IGROV-1 = test system: IGROV-1
SK-MEL-2 = test system: SK-MEL-2
TK-10 = test system: TK-10
HCC 2998 = test system: HCC 2998
KM-20L2 = test system: KM-20L2
HL-60 = test system: HL-60
RXF 393 = test system: RXF 393
UACC-62 = test system: UACC-62
DLD-1 = test system: DLD-1
DMS-114 = test system: DMS-114
HCT-15 = test system: HCT-15
UACC-257 = test system: UACC-257
COLO 205 = test system: COLO 205
K562 = test system: K562
CAKI-1 = test system: CAKI-1
NCI-H23 = test system: NCI-H23
SK-MEL-28 = test system: SK-MEL-28
UO-31 = test system: UO-31
DMS-273 = test system: DMS-273
ACHN = test system: ACHN
NCI-H226 = test system: NCI-H226
NCI-H460 = test system: NCI-H460
SW-620 = test system: SW-620
OVCAR-3 = test system: OVCAR-3
SN12C = test system: SN12C
A498 = test system: A498
OVCAR-5 = test system: OVCAR-5
KM12 = test system: KM12
XF498 = test system: XF498
SK-MEL-5 = test system: SK-MEL-5
CCRF-CEM = test system: CCRF-CEM
Malme-3M = test system: Malme-3M
SF-268 = test system: SF-268
RXF 631 = test system: RXF 631
SNB-75 = test system: SNB-75
NCI-H522 = test system: NCI-H522
MOLT-4 = test system: MOLT-4
786-0 = test system: 786-0
OVCAR-4 = test system: OVCAR-4
HT-29 = test system: HT-29
SF-539 = test system: SF-539
LOX IMVI = test system: LOX IMVI
M19-MEL = test system: M19-MEL
SK-OV-3 = test system: SK-OV-3
HCT-116 = test system: HCT-116
SNB-78 = test system: SNB-78
SR = test system: SR
HOP-92 = test system: HOP-92

In the case of `O=C1OC(CC(=O)c2ccc(Cl)c(Cl)c2)C(Cl)=C1Cl` (stereo unspecified), the GI50 (U-251) is reported as > 100 µM (inactive), the GI50 (EKVX) is reported as > 100 µM (inactive) and the GI50 (HOP-62) is reported as > 100 µM (inactive). The GI50 (A549) was > 100 µM (inactive), the GI50 (SNB-19) was 79.3 µM (inactive) and the GI50 (LXFL 529) was 58.6 µM (inactive). For the same compound, the GI50 (OVCAR-8) was > 100 µM (inactive), the GI50 (RPMI-8226) was > 100 µM (inactive) and the GI50 (SF-295) was > 100 µM (inactive). The GI50 (M14) was > 100 µM (inactive), the GI50 (HOP-18) was > 100 µM (inactive) and the GI50 (IGROV-1) was > 100 µM (inactive). For the same compound, the GI50 (SK-MEL-2) was > 100 µM (inactive), the GI50 (TK-10) was > 100 µM (inactive) and the GI50 (HCC 2998) was > 100 µM (inactive). For the same compound, the GI50 (KM-20L2) was > 100 µM (inactive), the GI50 (HL-60) was 82 µM (inactive) and the GI50 (RXF 393) was > 100 µM (inactive). The GI50 (UACC-62) was > 100 µM (inactive), the GI50 (DLD-1) was > 100 µM (inactive) and the GI50 (DMS-114) was 52.6 µM (inactive). The GI50 (HCT-15) was > 100 µM, the GI50 (UACC-257) was > 100 µM (inactive) and the GI50 (COLO 205) was > 100 µM (inactive). For the same compound, the GI50 (K562) was 38.8 µM (inactive), the GI50 (CAKI-1) was > 100 µM (inactive) and the GI50 (NCI-H23) was > 100 µM (inactive). For the same compound, the GI50 (SK-MEL-28) was > 100 µM (inactive), the GI50 (UO-31) was > 100 µM (inactive) and the GI50 (DMS-273) was > 100 µM (inactive). The GI50 (ACHN) was > 100 µM (inactive), the GI50 (NCI-H226) was 68.9 µM (inactive) and the GI50 (NCI-H460) was > 100 µM (inactive). The GI50 (SW-620) was > 100 µM (inactive), the GI50 (OVCAR-3) was > 100 µM (inactive) and the GI50 (SN12C) was > 100 µM (inactive). The GI50 (A498) was 31.2 µM (inactive), the GI50 (OVCAR-5) was > 100 µM (inactive) and the GI50 (KM12) was > 100 µM (inactive). The GI50 (XF498) was 64 µM (inactive), the GI50 (SK-MEL-5) was > 100 µM (inactive) and the GI50 (CCRF-CEM) was 20.8 µM (inactive). The GI50 (Malme-3M) was > 100 µM (inactive), the GI50 (SF-268) was > 100 µM (inactive) and the GI50 (RXF 631) was > 100 µM (inactive). The GI50 (SNB-75) was > 100 µM (inactive), the GI50 (NCI-H522) was 22.5 µM (inactive) and the GI50 (MOLT-4) was 38.7 µM (inactive). The GI50 (786-0) was > 100 µM (inactive), the GI50 (OVCAR-4) was > 100 µM (inactive) and the GI50 (HT-29) was > 100 µM (inactive). The GI50 (SF-539) was 74.5 µM (inactive), the GI50 (LOX IMVI) was > 100 µM (inactive) and the GI50 (M19-MEL) was > 100 µM (inactive). The GI50 (SK-OV-3) was > 100 µM (inactive).
For `O=c1c2ccccc2sc2nc(O)nn12`, the GI50 (U-251) was > 100 µM (inactive), the GI50 (EKVX) was > 100 µM (inactive) and the GI50 (HOP-62) was > 100 µM (inactive). For the same compound, the GI50 (A549) was > 100 µM (inactive), the GI50 (SNB-19) was > 100 µM (inactive) and the GI50 (LXFL 529) was > 100 µM (inactive). For the same compound, the GI50 (OVCAR-8) was > 100 µM (inactive), the GI50 (RPMI-8226) was > 100 µM (inactive) and the GI50 (SF-295) was > 100 µM (inactive). The GI50 (M14) was > 100 µM (inactive), the GI50 (HOP-18) was > 100 µM (inactive) and the GI50 (HCT-116) was > 100 µM (inactive). For the same compound, the GI50 (IGROV-1) was > 100 µM (inactive), the GI50 (SK-MEL-2) was > 100 µM (inactive) and the GI50 (TK-10) was > 100 µM (inactive). The GI50 (HCC 2998) was > 100 µM (inactive), the GI50 (KM-20L2) was > 100 µM (inactive) and the GI50 (HL-60) was > 100 µM (inactive). The GI50 (RXF 393) was > 100 µM (inactive), the GI50 (UACC-62) was > 100 µM (inactive) and the GI50 (DLD-1) was > 100 µM (inactive). For the same compound, the GI50 (HCT-15) was > 100 µM, the GI50 (UACC-257) was > 100 µM (inactive) and the GI50 (COLO 205) was > 100 µM (inactive). The GI50 (K562) was > 100 µM (inactive), the GI50 (CAKI-1) was > 100 µM (inactive) and the GI50 (NCI-H23) was > 100 µM (inactive). The GI50 (SK-MEL-28) was > 100 µM (inactive), the GI50 (UO-31) was > 100 µM (inactive) and the GI50 (DMS-273) was > 100 µM (inactive). For the same compound, the GI50 (ACHN) was > 100 µM (inactive), the GI50 (SNB-78) was > 100 µM (inactive) and the GI50 (NCI-H226) was > 100 µM (inactive). For the same compound, the GI50 (SR) was > 100 µM (inactive), the GI50 (NCI-H460) was > 100 µM (inactive) and the GI50 (SW-620) was > 100 µM (inactive). The GI50 (OVCAR-3) was > 100 µM (inactive), the GI50 (SN12C) was > 100 µM (inactive) and the GI50 (HOP-92) was > 100 µM (inactive). For the same compound, the GI50 (OVCAR-5) was > 100 µM (inactive), the GI50 (KM12) was > 100 µM (inactive) and the GI50 (XF498) was > 100 µM (inactive). For the same compound, the GI50 (SK-MEL-5) was > 100 µM (inactive), the GI50 (CCRF-CEM) was > 100 µM (inactive) and the GI50 (Malme-3M) was > 100 µM (inactive). For the same compound, the GI50 (SF-268) was > 100 µM (inactive), the GI50 (RXF 631) was > 100 µM (inactive) and the GI50 (SNB-75) was > 100 µM (inactive). The GI50 (MOLT-4) was > 100 µM (inactive), the GI50 (786-0) was > 100 µM (inactive) and the GI50 (OVCAR-4) was > 100 µM (inactive). For the same compound, the GI50 (HT-29) was > 100 µM (inactive), the GI50 (SF-539) was > 100 µM (inactive) and the GI50 (LOX IMVI) was > 100 µM (inactive). The GI50 (M19-MEL) was > 100 µM (inactive) and the GI50 (SK-OV-3) was > 100 µM (inactive).

From ChEMBL document CHEMBL1201862, “PubChem BioAssay data set” (2004)
